Assay results: ChEMBL document CHEMBL4130462, “Natural isoflavone biochanin A as a template for the design of new and potent 3-phenylquinolone efflux inhibitors against Mycobacterium avium” (Eur J Med Chem, 2017)
≈ marks a conversion by molar mass, not a printed value.

How the values were obtained:
[1] = tested on: Mycobacterium avium; settings: 104 mc'2 3
[2] = tested on: Mycobacterium avium; settings: isolate MAV2
Description: Inhibition of multidrug resistance efflux pump in Mycobacterium avium isolate MAV2 assessed as potentiation of clarithromycin -induced antibacterial activity by measuring clarithromycin MIC at 1/4 MIC incubated for 3 days by MTT assay (Rvb = >1024 ug/ml)

[3] = tested on: Mycobacterium avium; settings: isolate MAV4
[4] = tested on: Mycobacterium avium; settings: isolate MAV1
Description: Inhibition of multidrug resistance efflux pump in Mycobacterium avium isolate MAV1 assessed as potentiation of ofloxacin-induced antibacterial activity by measuring ofloxacin MIC at 1/2 MIC incubated for 3 days by MTT assay (Rvb = 4 ug/ml)

[5] = tested on: Mycobacterium avium subsp. avium ATCC 25291
Description: Inhibition of multidrug resistance efflux pump in Mycobacterium avium ATCC 25291 assessed as potentiation of clarithromycin -induced antibacterial activity by measuring clarithromycin MIC at 1/4 MIC incubated for 3 days by MTT assay

[6] = tested on: Mycobacterium avium; settings: isolate MAV1; remark: listed apart in the source
[7] = tested on: Mycobacterium avium; assay: Antimycobacterial activity against Mycobacterium avium isolate MAV2 assessed as reduction in bacterial viability incubated for 3 days by MTT assay; type: organism-based; settings: 72 h
[8] = tested on: Mycobacterium avium; settings: 104
Description: Inhibition of multidrug resistance efflux pump in Mycobacterium avium 104 assessed as potentiation of clarithromycin -induced antibacterial activity by measuring clarithromycin MIC at 1/4 MIC incubated for 3 days by MTT assay

[9] = tested on: Mycobacterium avium; settings: 104 mc'2 4
[10] = tested on: Mycobacterium avium; settings: 104 mc'2 3; remark: listed apart in the source
[11] = tested on: Mycobacterium avium; settings: isolate MAV3
[12] = tested on: Mycobacterium avium; settings: 104; remark: listed apart in the source
[13] = tested on: Mycobacterium avium subsp. avium ATCC 25291; remark: listed apart in the source
[14] = tested on: Mycobacterium avium; settings: in vivo, 72 h
Description: Antimycobacterial activity against Mycobacterium avium 104 mc'2 3 assessed as reduction in bacterial viability incubated for 3 days by MTT assay

[15] = tested on: Mycobacterium avium; settings: isolate MAV4; remark: listed apart in the source
Description: Inhibition of multidrug resistance efflux pump in Mycobacterium avium isolate MAV4 assessed as potentiation of clarithromycin -induced antibacterial activity by measuring clarithromycin MIC at 1/4 MIC incubated for 3 days by MTT assay

[16] = tested on: Mycobacterium avium; settings: 104; remark: listed apart in the source
[17] = tested on: Mycobacterium avium; settings: isolate MAV2; remark: listed apart in the source
[18] = tested on: Mycobacterium avium; settings: isolate MAV3; remark: listed apart in the source
[19] = tested on: Mycobacterium avium; settings: isolate MAV4; remark: listed apart in the source
[20] = tested on: Mycobacterium avium; settings: 104; remark: listed apart in the source
[21] = tested on: Mycobacterium avium; settings: isolate MAV3; remark: listed apart in the source
[22] = tested on: Mycobacterium avium; settings: isolate MAV1; remark: listed apart in the source
Description: Inhibition of multidrug resistance efflux pump in Mycobacterium avium isolate MAV1 assessed as potentiation of ofloxacin-induced antibacterial activity by measuring ofloxacin MIC at 1/4 MIC incubated for 3 days by MTT assay (Rvb = 4 ug/ml)

[23] = tested on: Mycobacterium avium; assay: Antimycobacterial activity against Mycobacterium avium isolate MAV1 assessed as reduction in bacterial viability incubated for 3 days by MTT assay; type: organism-based; settings: in vitro, 72 h
[24] = tested on: Mycobacterium avium; settings: isolate MAV3; remark: listed apart in the source
[25] = tested on: Mycobacterium avium; settings: 104 mc'2 4; remark: listed apart in the source
[26] = tested on: Mycobacterium avium; settings: 104 mc'2 4; remark: listed apart in the source
[27] = tested on: Mycobacterium avium; settings: isolate MAV4; remark: listed apart in the source
[28] = tested on: Mycobacterium avium; settings: isolate MAV3; remark: listed apart in the source
[29] = tested on: Mycobacterium avium; settings: isolate MAV1; remark: listed apart in the source
[30] = tested on: Mycobacterium avium; settings: isolate MAV1; remark: listed apart in the source
Description: Inhibition of multidrug resistance efflux pump in Mycobacterium avium isolate MAV1 assessed as potentiation of ciprofloxacin-induced antibacterial activity by measuring ciprofloxacin MIC at 1/2 MIC incubated for 3 days by MTT assay (Rvb = 2 ug/ml)

[31] = tested on: Mycobacterium avium; settings: in vivo, 72 h; remark: listed apart in the source
Description: Antimycobacterial activity against Mycobacterium avium 104 mc'2 4 assessed as reduction in bacterial viability incubated for 3 days by MTT assay

[32] = tested on: Mycobacterium avium; settings: isolate MAV4; remark: listed apart in the source
Description: Inhibition of multidrug resistance efflux pump in Mycobacterium avium isolate MAV4 assessed as potentiation of clarithromycin -induced antibacterial activity by measuring clarithromycin MIC at 1/2 MIC incubated for 3 days by MTT assay

[33] = tested on: Mycobacterium avium; settings: 104; remark: listed apart in the source
[34] = tested on: Mycobacterium avium; settings: isolate MAV2; remark: listed apart in the source
[35] = tested on: Mycobacterium avium; settings: isolate MAV2; remark: listed apart in the source
[36] = tested on: Mycobacterium avium; settings: 104 mc'2 4; remark: listed apart in the source
[37] = Cytotoxicity in human monocyte-derived macrophages assessed as reduction in cell viability incubated for 3 days by alamar blue dye based assay; design: species or system Macrophage cell line
[38] = tested on: Mycobacterium avium; settings: 104 mc'2 4; remark: listed apart in the source
[39] = tested on: Mycobacterium avium subsp. avium ATCC 25291; remark: listed apart in the source
[40] = tested on: Mycobacterium avium; settings: isolate MAV3; remark: listed apart in the source
[41] = tested on: Mycobacterium avium; settings: 104; remark: listed apart in the source
[42] = tested on: Mycobacterium avium; assay: Antimycobacterial activity against Mycobacterium avium isolate MAV4 assessed as reduction in bacterial viability incubated for 3 days by MTT assay; type: organism-based; settings: 72 h
[43] = tested on: Mycobacterium avium; settings: 104 mc'2 3; remark: listed apart in the source
[44] = tested on: Mycobacterium avium; settings: 104; remark: listed apart in the source
[45] = tested on: Mycobacterium avium; settings: 104; remark: listed apart in the source
[46] = tested on: Mycobacterium avium; assay: Antimycobacterial activity against Mycobacterium avium isolate MAV3 assessed as reduction in bacterial viability incubated for 3 days by MTT assay; type: organism-based; settings: 72 h
[47] = tested on: Mycobacterium avium; settings: isolate MAV3; remark: listed apart in the source
[48] = tested on: Mycobacterium avium; settings: isolate MAV2; remark: listed apart in the source
[49] = tested on: Mycobacterium avium; settings: isolate MAV1; remark: listed apart in the source
[50] = tested on: Mycobacterium avium subsp. avium ATCC 25291; remark: listed apart in the source
[51] = tested on: Mycobacterium avium; settings: isolate MAV4; remark: listed apart in the source
[52] = tested on: Mycobacterium avium; settings: 104; remark: listed apart in the source
[53] = tested on: Mycobacterium avium; settings: 104 mc'2 4; remark: listed apart in the source
[54] = tested on: Mycobacterium avium; settings: 104 mc'2 4; remark: listed apart in the source
[55] = tested on: Mycobacterium avium; settings: isolate MAV4; remark: listed apart in the source
[56] = tested on: Mycobacterium avium subsp. avium ATCC 25291; remark: listed apart in the source
Description: Inhibition of multidrug resistance efflux pump in Mycobacterium avium ATCC 25291 assessed as potentiation of ethidium bromide-induced antibacterial activity by measuring ethidium bromide MIC at 1/4 MIC incubated for 3 days by MTT assay

[57] = tested on: Mycobacterium avium; settings: 104; remark: listed apart in the source
Description: Inhibition of multidrug resistance efflux pump in Mycobacterium avium 104 assessed as potentiation of clarithromycin -induced antibacterial activity by measuring clarithromycin MIC at 1/2 MIC incubated for 3 days by MTT assay

[58] = tested on: Mycobacterium avium; settings: 104 mc'2 3; remark: listed apart in the source
[59] = tested on: Mycobacterium avium; settings: 104 mc'2 4; remark: listed apart in the source
[60] = tested on: Mycobacterium avium; settings: isolate MAV1; remark: listed apart in the source
Description: Inhibition of multidrug resistance efflux pump in Mycobacterium avium isolate MAV1 assessed as potentiation of ciprofloxacin-induced antibacterial activity by measuring ciprofloxacin MIC at 1/4 MIC incubated for 3 days by MTT assay

[61] = tested on: Mycobacterium avium; settings: isolate MAV4; remark: listed apart in the source
[62] = tested on: Mycobacterium avium; settings: isolate MAV1; remark: listed apart in the source
[63] = tested on: Mycobacterium avium; settings: isolate MAV1; remark: listed apart in the source
[64] = tested on: Mycobacterium avium; settings: isolate MAV3; remark: listed apart in the source

Structure (SMILES): CN(C)CCCN1c2ccccc2Sc2ccc(Cl)cc21 [CHLORPROMAZINE]
- MIC [1]: < 4 µg/mL
- MIC [2]: > 512 µg/mL
- MIC [3]: 3.12 µg/mL (≈ 9.8 µM)
- MIC [4]: < 0.0625 µg/mL
- MIC [5]: 1 µg/mL (≈ 3.14 µM)
- MIC [6]: < 4 µg/mL
- MIC [7]: 30 µg/mL (≈ 94.1 µM)
- MIC [8]: 4 µg/mL (≈ 12.5 µM)
- MIC [9]: 0.25 µg/mL (≈ 0.784 µM)
- MIC [10]: 1 µg/mL (≈ 3.14 µM)
- MIC [11]: 16 µg/mL (≈ 50.2 µM)
- MIC [12]: 3.12 µg/mL (≈ 9.8 µM)
- MIC [13]: < 1 µg/mL
- MIC [14]: 30 µg/mL (≈ 94.1 µM)
- MIC [15]: 2 µg/mL (≈ 6.27 µM)
- MIC [16]: 2 µg/mL (≈ 6.27 µM)
- MIC [17]: > 512 µg/mL
- MIC [18]: 1 µg/mL (≈ 3.14 µM)
- MIC [19]: 4 µg/mL (≈ 12.5 µM)
- MIC [20]: 2 µg/mL (≈ 6.27 µM)
- MIC [21]: 3.12 µg/mL (≈ 9.8 µM)
- MIC [22]: 1 µg/mL (≈ 3.14 µM)
- MIC [23]: 30 µg/mL (≈ 94.1 µM)
- MIC [24]: 0.5 µg/mL (≈ 1.57 µM)
- MIC [25]: 128 µg/mL (≈ 401 µM)
- MIC [26]: > 512 µg/mL
- MIC [27]: 16 µg/mL (≈ 50.2 µM)
- MIC [28]: 8 µg/mL (≈ 25.1 µM)
- MIC [29]: < 4 µg/mL
- MIC [30]: < 0.031 µg/mL
- MIC [31]: 30 µg/mL (≈ 94.1 µM)
- MIC [32]: 0.5 µg/mL (≈ 1.57 µM)
- MIC [33]: 0.5 µg/mL (≈ 1.57 µM)
- MIC [34]: 6.25 µg/mL (≈ 19.6 µM)
- MIC [35]: > 512 µg/mL
- MIC [36]: 6.25 µg/mL (≈ 19.6 µM)
- CC50 at 72 h ([37]; human monocyte-derived macrophages): 22.2 µM
- MTC ([37]; macrophage cell line, 72 h): 1.25 µM
- MIC [38]: 0.39 µg/mL (≈ 1.22 µM)
- MIC [39]: < 0.25 µg/mL
- MIC [40]: 64 µg/mL (≈ 201 µM)
- MIC [41]: < 4 µg/mL
- MIC [42]: 30 µg/mL (≈ 94.1 µM)
- MIC [43]: 1 µg/mL (≈ 3.14 µM)
- MIC [44]: 64 µg/mL (≈ 201 µM)
- MIC [45]: 8 µg/mL (≈ 25.1 µM)
- MIC [46]: 30 µg/mL (≈ 94.1 µM)
- MIC [47]: 4 µg/mL (≈ 12.5 µM)
- MIC [48]: > 512 µg/mL
- MIC [49]: 0.0625 µg/mL (≈ 0.196 µM)
- MIC [50]: 16 µg/mL (≈ 50.2 µM)
- MIC [51]: 2 µg/mL (≈ 6.27 µM)
- MIC [52]: 64 µg/mL (≈ 201 µM)
- MIC [53]: 64 µg/mL (≈ 201 µM)
- MIC [54]: 8 µg/mL (≈ 25.1 µM)
- MIC [55]: 128 µg/mL (≈ 401 µM)
- MIC [56]: 12.5 µg/mL (≈ 39.2 µM)
- MIC [57]: 1 µg/mL (≈ 3.14 µM)
- MIC [58]: < 4 µg/mL
- MIC [59]: 4 µg/mL (≈ 12.5 µM)
- MIC [60]: 1 µg/mL (≈ 3.14 µM)
- MIC [61]: 32 µg/mL (≈ 100 µM)
- MIC [62]: 32 µg/mL (≈ 100 µM)
- MIC [63]: < 4 µg/mL
- MIC [64]: 8 µg/mL (≈ 25.1 µM)
